Assays:
PKR R510Q = PKR R510Q (Homo sapiens, UniProt P30613, R510Q); experiment: PKR mutant assay (R510Q), AC50, LDH/NADH-coupled, absorbance at 340 nm; assay type: biochemical; conditions: for AC50: Table 2, enzyme assay, read-out: PK R510Q AC50; for EC50: read-out: PK R510Q
Protocol: (§1) Example 11. PKR Mutant Assay
(§2) PKR or PKR mutant enzyme solution was diluted into a reaction mix, which contains 1× buffer (100 mM KCl, 50 mM Tris pH 7.5, 5 mM MgCl2) as well as PEP (conc depends on enzyme), 180 μM NADH, 0.5 units LDH, 1 mM DTT, 0.03% BSA; final assay concentrations after 1.11 fold dilution are indicated.
(§3) 2 μL of test compound was added into wells first, and then 180 μL reaction mix was added.
(§4) Reactions mixture with test compound was assembled except for ADP, and plates were stored for 60 minutes at room temperature.
(§5) 20 uL ADP was added to start reaction at room temperature and reaction progress was measured as changes in absorbance at 340 nm wavelength at room temperature.
(§6) Test Compound Preparation:
(§7) Test compound stock was made at 100× concentration in 100% DMSO (10 mM)
(§8) 1 to 3 dilutions were made for 11 points (i.e. 50 μl of first concentration added to 100 μl 100% DMSO to yield 3.33 mM, 50 μl of this added to 100 μl DMSO to yield 1.11 mM, and so forth) • 1 to 100 dilution into assay (2 μl in 200 μl) yielded starting concentration of 100 μM, decreasing 3 fold for 11 points.
(§9) Assay Buffer: 100 mM KCl, 50 mM Tris 7.5, 5 mM MgCl2, 1 mM DTT, 0.03% BSA
(§10) Reaction Mixture: PKR mutant enzyme: 40-400 ng/well; ADP: 0.2-1.65 mM; PEP: 0.1-0.5 mM; NADH: 180 μM; LDH: 0.5 units (Sigma #59023); DTT: 1 mM; BSA: 0.03%.

PKR K410E = PKR K410E (Homo sapiens, UniProt P30613, K410E); experiment: PKR mutant assay (K410E), AC50, LDH/NADH-coupled, absorbance at 340 nm; assay type: biochemical; conditions: for AC50: Table 2, enzyme assay; for EC50: Table 4, AC50, enzyme assay
PKR K410E, sequence (P30613 whole entry K410E): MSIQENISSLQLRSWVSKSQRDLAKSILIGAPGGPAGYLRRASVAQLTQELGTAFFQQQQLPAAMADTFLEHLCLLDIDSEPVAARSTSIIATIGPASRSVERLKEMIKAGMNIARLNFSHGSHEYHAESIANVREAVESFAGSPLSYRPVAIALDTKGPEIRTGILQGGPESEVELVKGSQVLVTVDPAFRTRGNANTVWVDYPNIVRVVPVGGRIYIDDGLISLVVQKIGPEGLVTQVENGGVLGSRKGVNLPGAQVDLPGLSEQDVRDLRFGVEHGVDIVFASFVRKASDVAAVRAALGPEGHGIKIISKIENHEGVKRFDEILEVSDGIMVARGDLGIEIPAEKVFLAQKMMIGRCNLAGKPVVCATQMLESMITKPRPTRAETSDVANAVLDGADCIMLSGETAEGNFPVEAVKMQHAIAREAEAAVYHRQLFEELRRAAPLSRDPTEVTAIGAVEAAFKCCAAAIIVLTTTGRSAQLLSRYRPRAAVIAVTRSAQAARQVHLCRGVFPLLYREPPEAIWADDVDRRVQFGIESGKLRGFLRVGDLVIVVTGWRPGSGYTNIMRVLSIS
Protocol: as §1, §2, §3, §4, §5, §6, §7, §8, §9, §10

wild type PKR [1] = target: T1, wild type PKR (Homo sapiens, UniProt P30613); experiment: Cell based ATP assay in purified red blood cells (Cell-Titer-Glo); set-up: endogenous in cells; host or cells: purified red blood cells from healthy volunteers; conditions: overnight at 37° C., ATP levels; for AC50: Table 2, RBCs; for EC50 / Cell based ATP assay: Table 4, AC50, RBCs
T1 sequence (P30613 whole entry): as the sequence (P30613 whole entry K410E) above, with E410K counted along it
Protocol: Example 16. Red Blood Cell (RBC) Purification
Fresh blood drawn from healthy volunteers into K2EDTA tubes was collected. Whole blood was pelleted by spinning at 500 g for 10 minutes. Cut transfusion bag port off of Purecell leukocyte reduction neofilter (Fisher NC0267633) one (1) inch above filter. Attach a 10 ml syringe barrel to the remaining cut tubing attached to neofilter. The plasma layer was removed from the pellet of the whole blood and the pellet was resuspended in 2× volume of phosphate buffered saline (PBS). Transfer 9 ml re-suspended blood cell pellet to prepared 10 ml syringe that is attached to the neofilter. Allow whole blood to gravity flow through filter until all fluid runs through upper tubing into filter disc. Add plunger to the syringe, remove syringe from clamp and invert the filter, then plunge air through the syringe filter system. Using a new 5 ml syringe, remove filtered RBCs from the bag by the syringe port and transfer purified RBCs to a 5 ml snap cap tube that has been incubated on ice. Spin 5 ml snap cap tube at 500 g for 10 minutes at 15 C, aspirate supernatant and resuspend in AGAM (1×PBS, 1% glucose, 170 mg/L adenine, 5.25 g/L mannitol) at a density of 4×10^9 cells/mL.
Example 17. Cell Based ATP Assay
For cell based ATP assays, the compound as described herein was prepared in 100% DMSO as a 10 mM stock. Serial dilutions (1:4) were performed in 96-well V-bottom storage plate and then added 1:100 to 96-well V-bottom plates containing AGAM. RBCs were diluted in AGAM media to a density of 1×10^7 cells/mL before added 90 μL/well to black clear bottom assay plates (final compound concentration at 0.1% DMSO concentration). Assay plates were sealed using aluminum foil seals and incubated overnight at 37° C. in a humidified chamber. ATP levels were read out using Cell-Titer-Glo (Promega).

wild type PKR [2] = target: T1, wild type PKR; experiment: PKR (wild type) enzyme AC50 assay, LDH/NADH-coupled, absorbance at 340 nm; assay type: biochemical; conditions: for AC50: Table 2, enzyme assay, read-out: PKR WT AC50; for EC50: read-out: PKR WT
Protocol: as §1, §2, §3, §4, §5, §6, §7, §8, §9, §10

PKR R510Q, sequence (P30613 whole entry R510Q): as the sequence (P30613 whole entry K410E) above, with E410K, R510Q counted along it

Compound | AC50 (PKR R510Q) [nM] | AC50 (PKR K410E) [nM] | AC50 (wild type PKR [1]) [nM] | AC50 (wild type PKR [2]) [nM] | EC50 (PKR R510Q; Table 4, AC50, enzyme assay) [nM] | EC50 (PKR K410E) [nM] | EC50 (wild type PKR [1]) [nM] | EC50 (wild type PKR [2]; Table 4, AC50, enzyme assay) [nM] | Cell based ATP assay (wild type PKR [1]) | PK R510Q (PKR R510Q; Table 4, AC50, enzyme assay) | PKR WT (wild type PKR [2]; Table 4, AC50, enzyme assay)
Cn1c2nc(Cc3cc[nH]n3)sc2c2cnn(Cc3ccc4nc[nH]c4n3)c(=O)c21 [Compound 381] | – | – | – | – | < 300 | < 300 | ≤ 1000 | < 300 | – | – | –
Cn1c2nc(Cc3cc[nH]n3)sc2c2cnn(Cc3nccc4[nH]ncc34)c(=O)c21 [Compound 199] | – | – | – | – | < 300 | < 300 | ≤ 1000 | < 300 | – | – | –
Cn1c2nc([S+](C)[O-])sc2c2cnn(Cc3cccc4c3CCNC4)c(=O)c21 (centres unmarked) [Compound 80] | < 300 | > 800 | > 1000 | > 800 | – | – | – | – | – | – | –
Cn1ncc2nc(Cn3ncc4c5sc(Cc6cc[nH]n6)nc5n(C)c4c3=O)ccc21 [Compound 288] | – | – | – | – | < 300 | < 300 | ≤ 1000 | < 300 | – | – | –
Cn1c2nc(Cc3cnco3)sc2c2cnn(Cc3cccc4[nH]ncc34)c(=O)c21 [Compound 240] | – | – | – | – | 301 to 800 | > 800 | ≤ 1000 | 301 to 800 | – | – | –
Cn1c2nc(Cc3cc[nH]n3)sc2c2cnn(Cc3ccc(O)c(N)c3)c(=O)c21 [Compound 256] | – | – | – | – | < 300 | < 300 | ≤ 1000 | < 300 | – | – | –
Cn1c2nc(Cc3cc[nH]n3)sc2c2cnn(CC3CCCCC3)c(=O)c21 [Compound 397] | – | – | – | – | > 800 | > 800 | – | > 800 | No Fit | – | –
Cn1ccc(Cn2ncc3c4sc(CCc5cccnc5)nc4n(C)c3c2=O)n1 [Compound 406] | – | – | – | – | > 800 | > 800 | – | > 800 | No Fit | – | –
Cn1c2nc(Cc3cc[nH]n3)sc2c2cnn(Cc3cccc4sc(N)nc34)c(=O)c21 [Compound 235] | – | – | – | – | < 300 | < 300 | ≤ 1000 | < 300 | – | – | –
Cn1c2nc(C(C)(O)c3cc[nH]n3)sc2c2cnn(Cc3cccc4[nH]ncc34)c(=O)c21 (centres unmarked) [Compound 162] | < 300 | < 300 | ≤ 1000 | < 300 | – | – | – | – | – | – | –
Cn1c2nc(Cc3cscn3)sc2c2cnn(Cc3cccc4[nH]ncc34)c(=O)c21 [Compound 227] | – | – | – | – | < 300 | < 300 | ≤ 1000 | < 300 | – | – | –
COC(=O)C(c1cc[nH]n1)c1nc2c(s1)c1cnn(Cc3cccc4[nH]ncc34)c(=O)c1n2C (centres unmarked) [Compound 171] | > 800 | 301 to 800 | ≤ 1000 | > 800 | – | – | – | – | – | – | –
Cn1c2nc([C@H](O)c3cc[nH]n3)sc2c2cnn(Cc3cccc4[nH]ncc34)c(=O)c21 [Compound 305] | – | – | – | – | < 300 | < 300 | ≤ 1000 | < 300 | – | – | –
Cn1c2nc(Cc3cc[nH]n3)sc2c2cnn(Cc3cccc4nn[nH]c34)c(=O)c21 [Compound 202] | – | – | – | – | < 300 | < 300 | ≤ 1000 | < 300 | – | – | –
Cn1c2nc([S+](C)[O-])sc2c2cnn(Cc3ccc4c(c3)OCCO4)c(=O)c21 (centres unmarked) [Compound 90] | < 300 | < 300 | > 1000 | < 300 | – | – | – | – | – | – | –
Cn1c2nc(Cc3cc[nH]n3)sc2c2cnn(CCc3cscn3)c(=O)c21 [Compound 401] | – | – | – | – | < 300 | < 300 | ≤ 1000 | < 300 | – | – | –
Cn1c2nc(Cc3nc[nH]n3)sc2c2cnn(Cc3cccc4[nH]ncc34)c(=O)c21 [Compound 230] | – | – | – | – | < 300 | < 300 | ≤ 1000 | < 300 | – | – | –
COc1ncccc1Cc1nc2c(s1)c1cnn(Cc3cccc4[nH]ncc34)c(=O)c1n2C [Compound 219] | – | – | – | – | < 300 | < 300 | ≤ 1000 | < 300 | – | – | –
CNc1ccc(Cn2ncc3c4sc(C)nc4n(C)c3c2=O)cc1 [Compound 69] | 301 to 800 | > 800 | > 1000 | > 800 | – | – | – | – | – | – | –
COc1ccc(Cn2ncc3c4sc(C)nc4n(C)c3c2=O)cc1 [Compound 2] | – | < 300 | ≤ 1000 | < 300 | – | – | – | – | – | – | –

Further lines, results first:

AC50 (PKR R510Q) [nM] | AC50 (PKR K410E) [nM] | AC50 (wild type PKR [1]) [nM] | AC50 (wild type PKR [2]) [nM] | EC50 (PKR R510Q; Table 4, AC50, enzyme assay) [nM] | EC50 (PKR K410E) [nM] | EC50 (wild type PKR [1]) [nM] | EC50 (wild type PKR [2]; Table 4, AC50, enzyme assay) [nM] | Cell based ATP assay (wild type PKR [1]) | PK R510Q (PKR R510Q; Table 4, AC50, enzyme assay) | PKR WT (wild type PKR [2]; Table 4, AC50, enzyme assay) | Compound
301 to 800 | < 300 | ≤ 1000 | < 300 | – | – | – | – | – | – | – | Cn1c2nc(CNS(C)(=O)=O)sc2c2cnn(Cc3cccc4[nH]ncc34)c(=O)c21 [Compound 142]
– | – | – | – | – | > 800 | > 1000 | – | – | No Fit | No Fit | CS(=O)(=O)c1nc2c(s1)c1cnn(Cc3ccccc3)c(=O)c1n2-c1nccs1 [Compound 410]
– | – | – | – | > 800 | > 800 | – | > 800 | No Fit | – | – | O=c1c2c(cnn1Cc1ccccc1)c1sc(Cc3ccccn3)nc1n2-c1nccs1 [Compound 411]
< 300 | < 300 | ≤ 1000 | < 300 | – | – | – | – | – | – | – | COc1cccc(Cn2ncc3c4sc(C)nc4n(C)c3c2=O)c1 [Compound 1]
< 300 | < 300 | ≤ 1000 | < 300 | – | – | – | – | – | – | – | Cn1c2nc(Cc3cccnc3)sc2c2cnn(Cc3cccc4[nH]ncc34)c(=O)c21 [Compound 164]
– | – | – | – | < 300 | < 300 | ≤ 1000 | < 300 | – | – | – | Cn1c2nc(Cc3n[nH]cc3F)sc2c2cnn(Cc3ccccc3)c(=O)c21 [Compound 382]
– | – | – | – | < 300 | < 300 | ≤ 1000 | < 300 | – | – | – | Cn1c2nc(Cc3nccs3)sc2c2cnn(Cc3cccc4[nH]ncc34)c(=O)c21 [Compound 222]
< 300 | < 300 | – | < 300 | – | – | – | – | – | – | – | Cc1nc2c(s1)c1cnn(Cc3ccc(O)cc3)c(=O)c1n2C [Compound 16]
< 300 | < 300 | – | < 300 | – | – | – | – | – | – | – | COc1cccc(Cn2ncc3c4sc(C(F)c5ccccc5)nc4n(C)c3c2=O)c1 (centres unmarked) [Compound 12]

Reference: patent US11957680B2, “Pyruvate kinase activators for use in treating blood disorders” (Agios Pharmaceuticals, Inc., priority 2017, dated 2024)
